Measurements from patent US20250154141A1 (University of Florida Research Foundation, Incorporated, priority 2021, published 2025).
pIC50: −log10 of the molar value. Read-outs that look alike come from different tables or passages of the source.

Columns and labels:
[1] = tested on: RS4; 11; experiment: Cell viability assay (MTS) in RS4; 11 cells; type: cell-based; design: Anti-Cancer Activity IC50 (48 hr) RS4; 11: scale not given here; details: for pIC50: Homo sapiens, RS4-11
Description: (§1) Acute lymphoblastic leukemia cells (MOLT-4 and RS4; 11) were incubated with increasing concentrations of Bcl-xL degraders for 48 h. Cell viability was measured by tetrazolium-based MTS assay.

[2] = tested on: MOLT-4; experiment: Cell viability assay (MTS) in MOLT-4 cells; type: cell-based; details: Homo sapiens, MOLT-4
Description: as §1

[3] = Table 2, 48 hr, MTS, read-out: Anti-Cancer Activity IC50 (48 hr) MOLT-4
[4] = Table 2, 48 hr, MTS, read-out: Anti-Cancer Activity IC50 (48 hr) RS4, 11
[5] = Table 5, 48 h, read-out: RS4 48 h IC50
[6] = Table 5, 48 h, read-out: MOLT-4 48 h IC50

SMILES	Anti-Cancer Activity IC50 (48 hr) RS4; 11 ([1]; Table 2, 48 hr, MTS)	pIC50 [2, 3]	pIC50 [1, 4]	pIC50 [1, 5]	pIC50 [2, 6]
Cc1ncsc1-c1ccc([C@H](C)NC(=O)[C@@H]2C[C@@H](O)CN2C(=O)[C@@H](NC(=O)CCCCCCC(=O)N2CCN(CC3(C)CCC(c4ccc(Cl)cc4)=C(CN4CCN(c5ccc(C(=O)NS(=O)(=O)c6ccc(N[C@H](CCN(C)C7CC7)CSc7ccccc7)c([N+](=O)[O-])c6)cc5)CC4)C3)CC2)C(C)(C)C)cc1 (stereo partly drawn) [Compound 35, (2S,4R)-1-((2S)-2-(8-(4-((4′-chloro-6-((4-(4-(((4-(((R)-4-(cyclopropyl(methyl)amino)-1-(phenylthio)butan-2-yl)amino)-3-nitrophenyl)sulfonyl)carbamoyl)phenyl)piperazin-1-yl)methyl)-4-methyl-2,3,4,5-tetrahydro-[1,1′-biphenyl]-4-yl)methyl)piperazin-1-yl)-8-oxooctanamido)-3,3-dimethylbutanoyl)-4-hydroxy-N—((S)-1-(4-(4-methylthiazol-5-yl)phenyl)ethyl)pyrrolidine-2-carboxamide]	+ ++	7.00 to 7.70			
Cc1ncsc1-c1ccc([C@H](C)NC(=O)[C@@H]2C[C@@H](O)CN2C(=O)[C@@H](NC(=O)CCCCCC(=O)N2CCN(CC3CCN(CC4(C)CCC(c5ccc(Cl)cc5)=C(CN5CCN(c6ccc(C(=O)NS(=O)(=O)c7ccc(N[C@H](CCN8CCOCC8)CSc8ccccc8)c(S(=O)(=O)C(F)(F)F)c7)cc6)CC5)C4)CC3)CC2)C(C)(C)C)cc1 (stereo partly shown) [Compound 19]		> 7.70	7.00 to 7.70		
Cc1ncsc1-c1ccc([C@H](C)NC(=O)[C@@H]2C[C@@H](O)CN2C(=O)[C@@H](NC(=O)CC2CCN(CC(=O)N3CCN(C[C@]4(C)CCC(c5ccc(Cl)cc5)=C(CN5CCN(c6ccc(C(=O)NS(=O)(=O)c7ccc(N[C@H](CCN8CCCOCC8)CSc8ccccc8)c(S(=O)(=O)C(F)(F)F)c7)cc6)CC5)C4)CC3)CC2)C(C)(C)C)cc1 [Compound 75]		7.00 to 7.70	7.00 to 7.70		
CCN(CCO)CC[C@H](CSc1ccccc1)Nc1ccc(S(=O)(=O)NC(=O)c2ccc(N3CCN(CC4=C(c5ccc(Cl)cc5)CCC(C)(CN5CCN(C(=O)CCCCCCC(=O)N[C@H](C(=O)N6C[C@H](O)C[C@H]6C(=O)N[C@@H](C)c6ccc(-c7scnc7C)cc6)C(C)(C)C)CC5)C4)CC3)cc2)cc1[N+](=O)[O-] (stereo partly drawn) [Compound 43, (2S,4R)-1-((2S)-2-(8-(4-((4′-chloro-6-((4-(4-(((4-(((R)-4-(ethyl(2-hydroxyethyl)amino)-1-(phenylthio)butan-2-yl)amino)-3-nitrophenyl)sulfonyl)carbamoyl)phenyl)piperazin-1-yl)methyl)-4-methyl-2,3,4,5-tetrahydro-[1,1′-biphenyl]-4-yl)methyl)piperazin-1-yl)-8-oxooctanamido)-3,3-dimethylbutanoyl)-4-hydroxy-N—((S)-1-(4-(4-methylthiazol-5-yl)phenyl)ethyl)pyrrolidine-2-carboxamide]		7.00 to 7.70	> 7.70	8.14	7.11
Cc1ncsc1-c1ccc([C@H](C)NC(=O)[C@@H]2C[C@@H](O)CN2C(=O)[C@@H](NC(=O)CN2CCC(CN3CCN(CC4(C)CCC(c5ccc(Cl)cc5)=C(CN5CCN(c6ccc(C(=O)NS(=O)(=O)c7ccc(N[C@H](CCN8CCOCC8)CSc8ccccc8)c(S(=O)(=O)C(F)(F)F)c7)cc6)CC5)C4)CC3)CC2)C(C)(C)C)cc1 (stereo partly drawn) [Compound 16, (2S,4R)-1-((2S)-2-(2-(4-((4-((4′-chloro-4-methyl-6-((4-(4-(((4-(((R)-4-morpholino-1-(phenylthio)butan-2-yl)amino)-3-((trifluoromethyl)sulfonyl)phenyl)sulfonyl)carbamoyl)phenyl)piperazin-1-yl)methyl)-2,3,4,5-tetrahydro-[1,1′-biphenyl]-4-yl)methyl)piperazin-1-yl)methyl)piperidin-1-yl)acetamido)-3,3-dimethylbutanoyl)-4-hydroxy-N—((S)-1-(4-(4-methylthiazol-5-yl)phenyl)ethyl)pyrrolidine-2-carboxamide]		> 7.70	7.00 to 7.70	7.37	7.90
Cc1ncsc1-c1ccc([C@H](C)NC(=O)[C@@H]2C[C@@H](O)CN2C(=O)[C@@H](NC(=O)CCCCCCC(=O)N2CCN(CC3(C)CCC(c4ccc(Cl)cc4)=C(CN4CCN(c5ccc(C(=O)NS(=O)(=O)c6ccc(N[C@H](CCN7C[C@H]8C[C@@H]7CO8)CSc7ccccc7)c([N+](=O)[O-])c6)cc5)CC4)C3)CC2)C(C)(C)C)cc1 (stereo partly drawn) [Compound 52, (2S,4R)-1-((2S)-2-(8-(4-((6-((4-(4-(((4-(((R)-4-((1R,4R)-2-oxa-5-azabicyclo[2.2.1]heptan-5-yl)-1-(phenylthio)butan-2-yl)amino)-3-nitrophenyl)sulfonyl)carbamoyl)phenyl)piperazin-1-yl)methyl)-4′-chloro-4-methyl-2,3,4,5-tetrahydro-[1,1′-biphenyl]-4-yl)methyl)piperazin-1-yl)-8-oxooctanamido)-3,3-dimethylbutanoyl)-4-hydroxy-N—((S)-1-(4-(4-methylthiazol-5-yl)phenyl)ethyl)pyrrolidine-2-carboxamide]		> 7.70	> 7.70	8.55	7.82

Second part, the compound after the results:

Anti-Cancer Activity IC50 (48 hr) RS4; 11 ([1]; Table 2, 48 hr, MTS)	pIC50 [2, 3]	pIC50 [1, 4]	pIC50 [1, 5]	pIC50 [2, 6]	SMILES
	7.00 to 7.70	> 7.70			Cc1ncsc1-c1ccc([C@H](C)NC(=O)[C@@H]2C[C@@H](O)CN2C(=O)[C@@H](NC(=O)CCCCCCC(=O)N2CCN(C[C@]3(C)CCC(c4ccc(Cl)cc4)=C(CN4CCN(c5ccc(C(=O)NS(=O)(=O)c6ccc(N[C@H](CCN7CCOC[C@H]7C)CSc7ccccc7)c(S(=O)(=O)C(F)(F)F)c6)cc5)CC4)C3)CC2)C(C)(C)C)cc1 [Compound 89, (2S,4R)-1-((S)-2-(8-(4-(((R)-4′-chloro-4-methyl-6-((4-(4-(((4-(((R)-4-((R)-3-methylmorpholino)-1-(phenylthio)butan-2-yl)amino)-3-((trifluoromethyl)sulfonyl)phenyl)sulfonyl)carbamoyl)phenyl)piperazin-1-yl)methyl)-2,3,4,5-tetrahydro-[1,1′-biphenyl]-4-yl)methyl)piperazin-1-yl)-8-oxooctanamido)-3,3-dimethylbutanoyl)-4-hydroxy-N—((S)-1-(4-(4-methylthiazol-5-yl)phenyl)ethyl)pyrrolidine-2-carboxamide]
	5.00 to 6.30	5.00 to 6.30			Cc1ncsc1-c1ccc([C@H](C)NC(=O)[C@@H]2C[C@@H](O)CN2C(=O)[C@@H](NC(=O)CCCCCCC(=O)N2CCN(C[C@]3(C)CCC(c4ccc(Cl)cc4)=C(CN4CCN(c5ccc(C(=O)NS(=O)(=O)c6ccc(N[C@H](CCN7CCCC(F)(F)C7)CSc7ccccc7)c(S(=O)(=O)C(F)(F)F)c6)cc5)CC4)C3)CC2)C(C)(C)C)cc1 [Compound 88]
	> 7.70	> 7.70			Cc1ncsc1-c1ccc([C@H](C)NC(=O)[C@@H]2C[C@@H](O)CN2C(=O)[C@@H](NC(=O)CCCCCCC(=O)N2CCN(C[C@]3(C)CCC(c4ccc(Cl)cc4)=C(CN4CCN(c5ccc(C(=O)NS(=O)(=O)c6ccc(N[C@H](CCN7CCCCCC7)CSc7ccccc7)c(S(=O)(=O)C(F)(F)F)c6)cc5)CC4)C3)CC2)C(C)(C)C)cc1 [Compound 60, (2S,4R)-1-((S)-2-(8-(4-(((R)-6-((4-(4-(((4-(((R)-4-(azepan-1-yl)-1-(phenylthio)butan-2-yl)amino)-3-((trifluoromethyl)sulfonyl)phenyl)sulfonyl)carbamoyl)phenyl)piperazin-1-yl)methyl)-4′-chloro-4-methyl-2,3,4,5-tetrahydro-[1,1′-biphenyl]-4-yl)methyl)piperazin-1-yl)-8-oxooctanamido)-3,3-dimethylbutanoyl)-4-hydroxy-N—((S)-1-(4-(4-methylthiazol-5-yl)phenyl)ethyl)pyrrolidine-2-carboxamide]
	6.30 to 7.00	7.00 to 7.70			Cc1ncsc1-c1ccc([C@H](C)NC(=O)[C@@H]2C[C@@H](O)CN2C(=O)[C@@H](NC(=O)CCCCCCCC(=O)N2CCN(CCC3(C)CCC(c4ccc(Cl)cc4)=C(CN4CCN(c5ccc(C(=O)NS(=O)(=O)c6ccc(N[C@H](CCN7CCOCC7)CSc7ccccc7)c(S(=O)(=O)C(F)(F)F)c6)cc5)CC4)C3)CC2)C(C)(C)C)cc1 (stereo partly drawn) [Compound 29, (2S,4R)-1-((2S)-2-(9-(4-(2-(4′-chloro-4-methyl-6-((4-(4-(((4-(((R)-4-morpholino-1-(phenylthio)butan-2-yl)amino)-3-((trifluoromethyl)sulfonyl)phenyl)sulfonyl)carbamoyl)phenyl)piperazin-1-yl)methyl)-2,3,4,5-tetrahydro-[1,1′-biphenyl]-4-yl)ethyl)piperazin-1-yl)-9-oxononanamido)-3,3-dimethylbutanoyl)-4-hydroxy-N—((S)-1-(4-(4-methylthiazol-5-yl)phenyl)ethyl)pyrrolidine-2-carboxamide]
	> 7.70	> 7.70			Cc1ncsc1-c1ccc([C@H](C)NC(=O)[C@@H]2C[C@@H](O)CN2C(=O)[C@@H](NC(=O)CCCCCCC(=O)N2CCN(C[C@]3(C)CCC(c4ccc(Cl)cc4)=C(CN4CCN(c5ccc(C(=O)NS(=O)(=O)c6ccc(N[C@H](CCN7CCCCC7)CSc7ccccc7)c([N+](=O)[O-])c6)cc5)CC4)C3)CC2)C(C)(C)C)cc1 [Compound 40, (2S,4R)-1-((S)-2-(8-(4-(((R)-4′-chloro-4-methyl-6-((4-(4-(((3-nitro-4-(((R)-1-(phenylthio)-4-(piperidin-1-yl)butan-2-yl)amino)phenyl)sulfonyl)carbamoyl)phenyl)piperazin-1-yl)methyl)-2,3,4,5-tetrahydro-[1,1′-biphenyl]-4-yl)methyl)piperazin-1-yl)-8-oxooctanamido)-3,3-dimethylbutanoyl)-4-hydroxy-N—((S)-1-(4-(4-methylthiazol-5-yl)phenyl)ethyl)pyrrolidine-2-carboxamide]
